Common to all, as to test: NCI tumour cell line growth inhibition, 48 h
Assay [1] deals with Malme-3M.
The subject of assay [2] is SNB-75.
The subject of assay [3] is NCI-H522.
Assay [4] has as its system U-251.
For assay [5], the system named is HOP-62.
Assay [6] has as its system HOP-92.
The test system of assay [7] is IGROV-1.
Assay [8] concerns SN12C.
Assay [9] has as its system DMS-114.
Assay [10] has as its system OVCAR-5.
Assay [11] concerns NCI-H226.
Assay [12] deals with HCT-15.
The test system of assay [13] is SK-OV-3.
The subject of assay [14] is COLO 205.
The test system of assay [15] is CCRF-CEM.

The structures appear in SMILES notation.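 In this assay, cells in 96-well plates receive the compound at five concentrations for 48 hours. Endpoints are linearly interpolated between the surrounding concentrations. The concentration for 50% growth inhibition is given as GI50.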 Activity calls are given as the source filed them. Cut-off read from the data, not from the text of the source: active = GI50 up to about 1.1 µM and inactive = higher.

Consider `O=C1C2=C(c3ccccc31)C(c1ccccc1)NC(S)=N2` (stereo not drawn), for which the GI50 was > 100 µM (inactive) in [1]; 14.4 µM (inactive) in [2]; 33.7 µM (inactive) in assay [3]; 50.1 µM (inactive) in [4]; > 100 µM (inactive) in assay [5]; 14.8 µM (inactive) in assay [6]. For the same molecule, the GI50 is 75.3 µM (inactive) in [7]; > 100 µM (inactive) in assay [8]; 30.7 µM (inactive) in [9]; > 100 µM (inactive) in [10]; > 100 µM (inactive) in assay [11]; 37.1 µM in [12]. Moreover, the GI50 is > 100 µM (inactive) in assay [13], > 100 µM (inactive) in assay [14] and 30.1 µM (inactive) in assay [15].
In the case of `COc1cc(NCC(C#N)C#N)ccc1/N=N/c1ccc(Cl)cc1`, the GI50 in assay [1] was 35.2 µM (inactive); in assay [2] it was 31.6 µM (inactive); in [3] it was 16.6 µM (inactive); in assay [4], 18.5 µM (inactive); in [5], 19.9 µM (inactive); in assay [7], 30.5 µM (inactive). Further, the GI50 in [8] was 38.8 µM (inactive); in assay [9], 18.5 µM (inactive); in assay [10], 21.8 µM (inactive); in assay [11] it was 30.5 µM (inactive); in assay [12], 20 µM; in assay [13], 29.9 µM (inactive). Moreover, the GI50 in assay [14] was 17.7 µM (inactive); in assay [15], 18.9 µM (inactive).
Turning to `O=c1cc(-c2ccccc2)[nH]c2cc(Cl)cc(Cl)c12`, the GI50 in assay [1] is 20.6 µM (inactive); in assay [2] it was 10.3 µM (inactive); in assay [3], 12.1 µM (inactive); in assay [4] it was 31.1 µM (inactive); in assay [5], 25.8 µM (inactive); in assay [6] it was 25.5 µM (inactive). The GI50 is 52.7 µM (inactive) in assay [7]; 69 µM (inactive) in assay [8]; 26.4 µM (inactive) in assay [9]; > 100 µM (inactive) in assay [10]; 37.8 µM (inactive) in assay [11]; 6.79 µM in [12]. Besides, the GI50 is 23.6 µM (inactive) in assay [13], > 100 µM (inactive) in [14] and > 100 µM (inactive) in assay [15].
With `O=C(O)C1OC(Oc2cc(O)c3c(=O)cc(-c4ccc(O)cc4)oc3c2)C(O)C(O)C1O` (stereo not drawn), the GI50 was > 100 µM (inactive) in assay [1]; > 100 µM (inactive) in assay [2]; > 100 µM (inactive) in assay [3]; > 100 µM (inactive) in assay [4]; > 100 µM (inactive) in [5]; < 0.01 µM (active) in assay [6]. The GI50 in assay [8], in assay [9], in [10], in assay [11] and in assay [14] was > 100 µM (inactive) each time.
As for `N#CNc1nc(C(=O)Nc2ccc(Cl)cc2)cc(-c2ccccc2)n1`, the GI50 in [1], in assay [2], in assay [4], in assay [5], in assay [6] and in assay [7] was > 100 µM (inactive) throughout. Further, the GI50 is > 100 µM (inactive) in [8]; > 100 µM (inactive) in [9]; > 100 µM (inactive) in [10]; > 100 µM (inactive) in [11]; over 100 µM in [12].
With `Nc1ccc(O)c2c1C(=O)c1c(N)ccc(O)c1C2=O`, the GI50 in [1], in [2], in assay [3], in assay [4], in assay [5] and in [6] was > 100 µM (inactive) in each case. Besides, the GI50 was > 100 µM (inactive) in [7]; > 100 µM (inactive) in assay [8]; > 100 µM (inactive) in [9]; > 100 µM (inactive) in [10]; over 100 µM in assay [12]; > 100 µM (inactive) in assay [13]. The GI50 in assay [14] and in assay [15] was > 100 µM (inactive) in each case.
In the case of `O=C1CCC2(c3ccccc3)OCC([C@@H](O)c3ccccc3)N12` (stereo partly drawn), the GI50 in assay [1], in assay [2], in assay [4], in assay [5], in [6] and in assay [7] was > 100 µM (inactive) each time. In addition, the GI50 was > 100 µM (inactive) in assay [8]; > 100 µM (inactive) in [9]; > 100 µM (inactive) in assay [10]; over 100 µM in [12]; > 100 µM (inactive) in assay [14]; > 100 µM (inactive) in assay [15].
`COc1ccc2nc(-c3cccs3)cc(C(O)CN3CCSCC3)c2c1` (stereo not drawn): the GI50 was 15.2 µM (inactive) in assay [1]; 23.6 µM (inactive) in assay [2]; 14.1 µM (inactive) in [3]; 19.2 µM (inactive) in assay [4]; 24.2 µM (inactive) in assay [5]; 14.3 µM (inactive) in assay [6]. Besides, the GI50 is 36 µM (inactive) in assay [7]; 25.1 µM (inactive) in [8]; 12.2 µM (inactive) in assay [9]; 19.2 µM (inactive) in [10]; 16.1 µM in [12]; 39.6 µM (inactive) in assay [13]. Also, the GI50 in [14] is 22.9 µM (inactive); in assay [15], 11.9 µM (inactive).
Take `CC1CC(=O)C(CC(=O)O)[C@H]1C(C(=O)C(=O)Nc1cc(Cl)ccc1Cl)[N+](=O)[O-]` (stereo partly drawn): the GI50 was 85.9 µM (inactive) in [2]; > 100 µM (inactive) in assay [3]; > 100 µM (inactive) in assay [4]; > 100 µM (inactive) in assay [5]; > 100 µM (inactive) in [6]; > 100 µM (inactive) in assay [7]. Besides, the GI50 is > 100 µM (inactive) in assay [8]; > 100 µM (inactive) in [9]; > 100 µM (inactive) in [10]; > 100 µM (inactive) in [11]; over 100 µM in assay [12]; > 100 µM (inactive) in [13]. In addition, the GI50 in [14] and in assay [15] was > 100 µM (inactive) each time.
On to `CCOc1ccccc1/N=N/c1ccc2oc(=O)c(C(C)=O)cc2c1`, for which the GI50 was > 100 µM (inactive) in [1]; 16 µM (inactive) in assay [2]; 58.9 µM (inactive) in [3]; 43.7 µM (inactive) in [4]; > 100 µM (inactive) in [5]; > 100 µM (inactive) in assay [7]. Further, the GI50 in assay [8] is > 100 µM (inactive); in assay [9], > 100 µM (inactive); in assay [10] it was > 100 µM (inactive); in [12], over 100 µM; in [13], > 100 µM (inactive); in assay [14], > 100 µM (inactive). In addition, the GI50 in [15] is > 100 µM (inactive).
Turning to `CN(C)CC(/C(Cc1ccccc1)=N\NC(=S)NN)c1ccccc1` (stereo not drawn), the GI50 in assay [1], in assay [2], in [3], in assay [4], in assay [5] and in assay [6] was > 100 µM (inactive) in each case. For the same molecule, the GI50 in assay [7] was > 100 µM (inactive); in assay [8], > 100 µM (inactive); in assay [9], > 100 µM (inactive); in [10], > 100 µM (inactive); in assay [11] it was > 100 µM (inactive); in assay [12], over 100 µM. Further, the GI50 in assay [13] and in assay [14] was > 100 µM (inactive) in each case.
Consider `COc1cc(O)c2c(c1O)C(=O)c1cc(C)ncc1C2=O`, for which the GI50 in assay [1] was 9.71 µM (inactive); in [2], 20.3 µM (inactive); in [3], 27 µM (inactive); in assay [4] it was 12.9 µM (inactive); in [5], 28.8 µM (inactive); in assay [7], 23.1 µM (inactive). Moreover, the GI50 in assay [8] was 17.9 µM (inactive); in assay [9], 18.9 µM (inactive); in assay [10], 44.9 µM (inactive); in [11] it was 45 µM (inactive); in assay [12], 16.6 µM; in assay [13], 9.89 µM (inactive). The GI50 is 20.3 µM (inactive) in assay [14] and 19.2 µM (inactive) in [15].
`COC(=O)C1CC(C(=O)OC)c2nc3cc(C)c(C)cc3nc21` (stereo not drawn): the GI50 in assay [1] is > 100 µM (inactive); in assay [2] it was 36.3 µM (inactive); in assay [3], > 100 µM (inactive); in [4] it was > 100 µM (inactive); in assay [5], > 100 µM (inactive); in assay [6] it was > 100 µM (inactive). For the same molecule, the GI50 is > 100 µM (inactive) in assay [7]; > 100 µM (inactive) in [8]; > 100 µM (inactive) in assay [9]; > 100 µM (inactive) in assay [10]; > 100 µM (inactive) in [11]; over 100 µM in assay [12]. Moreover, the GI50 in [13], in assay [14] and in assay [15] was > 100 µM (inactive) throughout.
`COC(=O)C1=CCON(c2ccccc2)C1c1ccccc1` (stereo not drawn): the GI50 in assay [1] is 48.1 µM (inactive); in assay [2], 49.5 µM (inactive); in [3], 20.7 µM (inactive); in [4], 40.3 µM (inactive); in assay [5], > 100 µM (inactive); in assay [7] it was 97.3 µM (inactive). In addition, the GI50 in [8] is > 10 µM (inactive); in [9], 48.3 µM (inactive); in [10], 94.2 µM (inactive); in [11] it was 93.8 µM (inactive); in [12] it was 38 µM; in assay [13], 53 µM (inactive). Moreover, the GI50 was 65.8 µM (inactive) in assay [14] and 47.4 µM (inactive) in assay [15].
On to `C[N+](C)(C)CC1CCCC/C1=N\O` (stereo not drawn), for which the GI50 in assay [1], in assay [3], in assay [4], in assay [5], in assay [6] and in [7] was > 100 µM (inactive) in each case. The GI50 was > 100 µM (inactive) in assay [8]; > 100 µM (inactive) in [9]; > 100 µM (inactive) in assay [10]; over 100 µM in [12]; > 100 µM (inactive) in assay [13]; > 100 µM (inactive) in assay [14]. Further, the GI50 in assay [15] was > 100 µM (inactive).

The values above are taken from ChEMBL document CHEMBL1201862, “PubChem BioAssay data set” (2004).
